The source of these data is patent US8722649B2, “Alpha-chloro and alpha-bromo phosphonate analogs of lysophosphatidic acid and methods of making and using thereof” (University of Utah Research Foundation, priority 2007, dated 2014).

Assay [1] concerns HCT 116 cells. Put plainly: HCT 116 wound-healing migration assay. The note with it: 20 μM; 0, 16, 24 and 48 hours. Type of assay: cell-based. The method, then:
Effects of BrP-LPA analogs on HCT 116 migration. HCT 116 (2×10^5 per well) were plated in a six-well plate. When the cells were 100% confluent, the cells were treated with Mitomycin C (Sigma, MO, USA) 10 μg/ml for 2 hours, and then the monolayer was scratched using a 200 μl pipette tip. Medium and nonadherent cells were aspirated, the adherent cells were washed once, and new medium containing various concentrations of the pure diastereomers 1a and 1b, and the mixed diastereomers 1 (2 μM, 10 μM, 20 μM) was added (FIG. 13). A photograph was taken at the marked field (n=4) at 0, 16, 24 and 48 hours (FIG. 14). Wound closure was expressed as a percentage of the initial wound area, which was quantified using NIH ImageJ software.

The test system of assay [2] is HCT 116 cells. Put plainly: HCT 116 proliferation (MTS). Type of assay: cell-based. The note with it: 2, 10, 20 μM, 72 h. From the text: Effects of bromo-LPA analogs on HCT 116 proliferation. HCT 116 cells were purchased from the American Type Culture Collection (Manassas, Mass.). Medium and reagents were obtained from the following sources: McCoy's 5a Medium (ATCC, Manassas, Va.); Penicillin-Streptomycin (MP biomedicals, Solon, Ohio); Fetal bovine serum (ATCC, Manassas, Mass.); Accutase (MP biomedicals, Solon, Ohio); MTS (Promega, Madison, Wis.); Matrigel (Becton Dickinson Labware, Cambridge, Mass.); Extracel (Glycosan, Salt Lake City, Utah). Lysophosphatidic acid receptor pan-Antagonist (LPAa)—the pure diastereomers 1a and 1b, and the mixed diastereomers 1 (University of Utah, Salt Lake City, Utah).
HCT 116 cells were maintained in McCoy's 5a medium supplemented with 10% FBS, 100 μg/ml streptomycin, and 100 units/ml penicillin at 37° C. in 95% air, 5% CO2. 4,000HCT-116 cells were seeded in 100 μl media in each well of 96-well flat-bottomed microplates (BD Labware, N.J.). The pure diastereomers 1a and 1b, and the mixed diastereomers 1 were added at various final concentrations (2 μM, 10 μM, 20 μM) to each column. At 72 h, pipet 20 μl MTS (Promega, Madison, Wis.) into each well, and cells were further incubated for 2 h. The absorbance of the samples at 490 nm was measured using a 96-well plate reader (OPTI max, Sunnyvale, Calif.).

Assay [3] concerns LPA GPCRs. Put plainly: Ca2+ mobilization assay, overall profile across LPA GPCRs. It counts as cell-based, human. The note with it: across LPA1-4. The protocol: After incubating the cells with Fura-2 AM, the cells were rinsed with Krebs buffer and changes in the intracellular Ca^2+ concentration were monitored by determining the ratio of emitted light intensities at 520 nm in response to excitation at 340 and 380 nm using FLEXstation II (Molecular Devices, Sunnyvale, Calif.). Each well was monitored for 80-120 sec. For testing agonist activity of the compounds, the test compounds were added automatically after 15 sec of baseline measurement. To determine antagonist properties, varying concentrations of the compounds were mixed with a constant concentration of LPA and responses were monitored. Each test was performed in quadruplicate. EC50, IC50, and Ki values were calculated by fitting a sigmoid function to data points with the nonlinear curve-fitting feature of KaleidaGraph (Synergy Software, Essex Junction, Vt.).
Receptor activation using Ca^2+ mobilization assay. The assay for mobilization of intracellular Ca^2+ was performed as described. […] Using a FLEXStation (Molecular Devices, Sunnyvale, Calif.), changes in intracellular Ca^2+ concentration were monitored. Ligand-induced changes in fluorescence were monitored for 80-120 seconds. Ca^2+ transients were quantified automatically by calculating the difference between maximum and baseline ratio values for each sample. […] EC50, IC50, and Ki values were calculated as described. […]
(A change in cytosolic calcium serves as a functional read-out for many receptors and channels.)

Entries after “also recorded” stand apart in the source; their conditions may differ.

In the case of `CCCCCCCCCCCCCCCC(=O)OC[C@@H](O)C[C@H](Br)P(=O)(O)O` [Compound 1b], the “HCT 116 cell migration” value in assay [1] is given as “greatest inhibition”. In assay [2], the “HCT 116 cell proliferation” value is “highly suppressed; also recorded: dose-dependent inhibition”. With `CCCCCCCCCCCCCCCC(=O)OC[C@@H](O)C[C@@H](Br)P(=O)(O)O` [Compound 1a], the “overall LPA GPCR ligand profile” value in assay [3] is given as “pan-antagonist”.
